The nature of assay [1]: peptide binding to non-oxidized and oxidized lipids (SPR). Particulars: immobilized peptide; RU normalized to DMPC. How it is done: FIGS. 25A-25O show peptide binding activity to non-oxidized and oxidized lipids via SPR for indicated peptides. Peptides were reconstituted to 50 μg/mL in 10 mM acetate buffer, pH 4.5 and immobilized to ˜200 RU on a CM5 chip via amine coupling. Non-oxidized lipids (DMPC & POPC) and oxidized lipids (POVPC & KOdiA-PC) were diluted to 100 µM in HBS-EP running buffer and exposed to the chip for binding (n=3) at a flow rate of […] for 120 seconds. The surface was regenerated with 20% EtOH. T-001 served as a positive control and T-031 served as a negative control on each chip. For each peptide, the RU response for all lipids was normalized to the DMPC RU values.

Assay [2] concerns HepG2 cells. The assay is described as follows: HepG2 cholesterol import (BODIPY-Cholesterol). The following applies: HepG2, peptide:lipid complexes from 30 μM diluted 1:3. The class given is cell-based.
Procedure: HepG2 cells were seeded on a 96-well plate at 10,000 cells per well and grown to confluence. A solution of 500 μM DMPC and 50 μM BODIPY-Cholesterol was prepared in serum free EMEM. Peptides were diluted to 20 μM in serum free EMEM (a 2× solution). Peptides were added to lipid solution in equal parts (60 μL each) to create final 1× concentration and incubated for 1 hour at 37° C. HepG2 cells were serum starved in serum-free EMEM for 1 hour at 37° C. Peptide: Lipid complexes (100 μL total volume per well) were transferred to HepG2 cells for 2 hours at 37° C. Cells were washed, fixed, and intracellular fluorescence was read on Promega GloMax at 475 nm excitation, 500-550 emission. Fluorescence values were background corrected from no treatment conditions. Data are presented as mean+SD for two runs.
HepG2 cells were seeded on 96-well plates at 10,000 cells per well and grown to confluence. Peptide: Lipid complexes were created by preparing a solution of serum-free EMEM containing 30 μM peptide, 750 μM DMPC, and 75 μM BODIPY-Cholesterol. Peptide: Lipid complexes were serially diluted 1:3 for 5 concentrations, and incubated for 1 hour at 37° C. […] Cells were washed, fixed, and intracellular fluorescence was read on Promega GloMax at 475 nm excitation, 500-550 emission. Fluorescence values were background corrected from no treatment conditions. […]
Assay [3] deals with ARPE-19 cells. The assay is described as follows: ARPE-19 cell lysis (Sytox Green). The assay is classed as cell-based, human. The following applies: 3.16-100 μM peptide, 2 h. How it is done:
These figures illustrate ARPE-19 cell lysis. ARPE-19 cells were grown in 96-well plates to 75-85% confluence. Peptides at 10 mM were diluted in serum-free DMEM:F12 media into a 20 μM working solution (a 2× solution). Sytox Green was prepared in serum-free DMEM:F12 at a 1 μM working solution (a 2× solution). Equivalent volumes of the peptide and Sytox Green solutions were added to empty 96-well plates and mixed gently. Final peptide concentration was 10 μM. ARPE-19 cells (˜80% confluent in 96-well plates) were washed with DPBS and then incubated in 100 μL of peptide/Sytox Green mixture for 2 h at 37° C. Cells were fixed in 4% paraformaldehyde solution in DPBS and then incubated in 10 μM Hoechst solution for 10 min, washed, and imaged on a Yokogawa CQ1 high-content imager. CellPathfinder software was used to count live/dead cells in 4 fields of view at 20× magnification. Percent (%) lysis was calculated by dividing the number of Sytox Green+ nuclei by the total number of Hoechst+ nuclei.
ARPE-19 cells were grown in 96-well plates to 75-85% confluence. Peptides at 10 mM were diluted in serum-free DMEM: F12 media to solutions between […]. Sytox Green was prepared in serum-free DMEM: F12 media at a 1 μM working solution. Equivalent volumes of the peptide and Sytox Green solutions were added to empty 96-well plates and mixed gently. Final peptide concentration was 3.16-100 μM. ARPE-19 cells (˜80% confluent in 96-well plates) were washed with DPBS and then incubated in 100 μL of peptide/Sytox Green mixture for 2 h at 37° C. Cells were fixed in 4% paraformaldehyde solution in DPBS and then incubated in 10 μM Hoechst solution for 10 min, washed, and imaged on a Yokogawa CQ1 high-content imager. CellPathfinder software was used to count live/dead cells in 4 fields of view at 20× magnification. Percent (%) lysis was calculated by dividing the number of Sytox Green+ nuclei by the total number of Hoechst+ nuclei. Non-linear regression was used to calculate EC50 values.

Assay [4] deals with ARPE-19 cells. Kind of assay: ARPE-19 cholesterol import (BODIPY-Cholesterol). The class given is cell-based, human. The following applies: ARPE-19, 0.37-30 μM peptide, FIG. 15. The protocol: FIG. 12 and FIGS. 14A-14B illustrate the results of ARPE-19 cholesterol import testing. ARPE-19 cells were seeded on 96-well plates at 25,000 cells per well and grown to confluence. A 2× solution of 500 μM DMPC and 50 μM BODIPY-Cholesterol were prepared in serum free DMEM: F12. Peptides were diluted to 20 μM in serum free DMEM: F12 (a 2× solution). Peptides were added to lipid solution in equal parts (60 μL each) and were incubated for 1 hour at 37° C. ARPE-19 cells were serum starved in serum free DMEM: F12 for 1 hour at 37° C. Peptide: Lipid complexes (100 μL total volume per well) were transferred to ARPE-19 cells for 2 hours at 37° C. Cells were washed, fixed, and intracellular fluorescence was read on Promega GloMax at 475 nm excitation, 500-550 emission. Fluorescence values were background corrected from no treatment conditions. Data are presented as mean+SD for two runs.
FIG. 15 illustrates ARPE-19 cholesterol import titration curves for a subset of the peptides. ARPE-19 cells were seeded on 96-well plates at 25,000 cells per well and grown to confluence. A 2× solution of 500 μM DMPC and 50 μM BODIPY-Cholesterol was prepared in serum free DMEM: F12. Peptides were diluted to 0.74-60 μM in serum free DMEM: F12 (2× solutions). Peptides were added to lipid solution in equal parts (60 μL each) to create final peptide concentrations of 0.37-30 µM and incubated for 1 hour at 37° C. ARPE-19 cells were serum starved in serum free DMEM: F12 for 1 hour at 37° C. Peptide: Lipid complexes (100 μL total volume per well) were transferred to ARPE-19 cells for 2 hours at 37° C. Cells were washed, fixed, and intracellular fluorescence was read on Promega GloMax at 475 nm excitation, 500-550 emission. Fluorescence values were background corrected from no treatment conditions. […]
ARPE-19 cells were seeded on 96-well plates at 25,000 cells per well and grown to confluence. […] Cells were washed, fixed, and intracellular fluorescence was read on Promega GloMax at 475 nm excitation, 500-550 emission. Fluorescence values were background corrected from no treatment conditions. […]

Peptide text beside a SMILES is read from it.

As for `CC[C@H](C)[C@H](NC(=O)CNC(=O)[C@H](CO)NC(=O)[C@@H](NC(=O)[C@H](Cc1c[nH]c2ccccc12)NC(=O)[C@H](Cc1c[nH]cn1)NC(=O)[C@H](CCC(=O)O)NC(=O)[C@H](Cc1ccccc1)NC(=O)[C@H](CCCNC(=N)N)NC(=O)[C@H](CC(C)C)NC(=O)[C@H](CC(C)C)NC(=O)[C@H](CCCNC(=N)N)NC(=O)[C@H](CCCCN)NC(=O)[C@H](CCCNC(=N)N)NC(=O)[C@H](CC(C)C)NC(=O)[C@H](CCCCN)NC(=O)[C@H](CCCNC(=N)N)NC(=O)[C@H](CC(C)C)NC(=O)[C@@H](N)Cc1c[nH]cn1)[C@@H](C)CC)C(=O)N[C@@H](Cc1ccc(O)cc1)C(=O)N[C@@H](CO)C(=O)N[C@@H](CCC(=O)O)C(=O)N[C@@H](CS)C(=O)N[C@@H](CCCCN)C(=O)N[C@@H](Cc1c[nH]cn1)C(=O)N[C@@H](CC(C)C)C(=O)N[C@H](C(=O)N[C@@H](CCC(N)=O)C(=O)N[C@@H](CCC(=O)O)C(=O)O)[C@@H](C)CC` [T-025] (H-HLRKLRKRLLRFEHWISGIYSECKHLIQE-OH; N-terminus and C-terminus assumed), in assay [1], the “binding to oxidized lipids relative to DMPC” value is on record as “binding to at least one oxidized lipid that was equivalent or improved to binding against DMPC”. Moreover, the cholesterol import titration entry in assay [2] is reported as “concentration-dependent cholesterol import activity”; in assay [4] it was “concentration-dependent increase in cholesterol import”. Further, the EC50 in assay [3] amounted to 144 µM.

For the origin of these results see US20260115250A1, “METHODS OF TREATING AGE-RELATED MACULAR DEGENERATION” (Character Biosciences, Inc., priority 2022, published 2026).
